Tested on: ATF6
Test: ATF6 cleavage in hypoxic HT1080 cells (Western blot)
Type: cell-based, human
Settings: 2.5 μM, hypoxia
Description: A. Effect of irestatin 9389 on PERK and ATF6 pathways. HT1080 cells were treated with vehicle alone (lanes 1-4) or 2.5 μM irestatin 9389 (lanes 5-8) and cultured under aerobic conditions for 18 hours (N) or shifted to hypoxia for the indicated times. Protein lysates were analyzed by Western blot analysis using antisera specific for ATF6 (top), CHOP/GADD153 (middle) or actin (bottom). Arrow indicates the cleaved, transcriptionally active form of ATF6. B. Cleavage of caspase-3 in irestatin-treated cells under hypoxia. HT1080 cells were cultured in normoxia (N) or under hypoxia for 36 hours (H 36) in absence or presence of irestatin 9389 (2.5 μM). Arrows indicate proteolytically cleaved caspase-3. C. Colony formation assay. HT1080 cells were treated as in B under normoxia (N) or hypoxia for 48 hours (H 48). Cells were harvested, counted, and allowed to grow under normal culture conditions for 11-12 days. Colonies were visualized with crystal violet staining. D. Quantification of clonogenic survival assay. Values represent the mean+/−SEM from at least 4 independent experiments. E. TUNEL staining of cells treated as in C. F. Quantification of TUNEL-positive cells. Values represent the mean+/−SEM from at least 3 experiments. […] Cells were harvested at the indicated times and counted by hemocytometer. Values represent the mean calculated from triplicate experiments +/−SEM. […]

Q: How did the “proteolytic cleavage of ATF6 into active 50 kDa form” value turn out when `Cc1csc(NC(=O)CSc2nc3c(c(C(F)(F)F)c2C#N)CCC3)n1` [Compound 9389] was run?
A: significantly increased

— US20090291857A1, “METHODS TO IDENTIFY INHIBITORS OF THE UNFOLDED PROTEIN RESPONSE” (THE BOARD OF TRUSTEES OF THE LELAND STANFORD JUNIOR …, priority 2006, published 2009)
